# Biological target: T1, Mitogen-activated protein kinase kinase kinase 12 (Homo sapiens, UniProt Q12852)
# T1 sequence (Q12852 whole entry): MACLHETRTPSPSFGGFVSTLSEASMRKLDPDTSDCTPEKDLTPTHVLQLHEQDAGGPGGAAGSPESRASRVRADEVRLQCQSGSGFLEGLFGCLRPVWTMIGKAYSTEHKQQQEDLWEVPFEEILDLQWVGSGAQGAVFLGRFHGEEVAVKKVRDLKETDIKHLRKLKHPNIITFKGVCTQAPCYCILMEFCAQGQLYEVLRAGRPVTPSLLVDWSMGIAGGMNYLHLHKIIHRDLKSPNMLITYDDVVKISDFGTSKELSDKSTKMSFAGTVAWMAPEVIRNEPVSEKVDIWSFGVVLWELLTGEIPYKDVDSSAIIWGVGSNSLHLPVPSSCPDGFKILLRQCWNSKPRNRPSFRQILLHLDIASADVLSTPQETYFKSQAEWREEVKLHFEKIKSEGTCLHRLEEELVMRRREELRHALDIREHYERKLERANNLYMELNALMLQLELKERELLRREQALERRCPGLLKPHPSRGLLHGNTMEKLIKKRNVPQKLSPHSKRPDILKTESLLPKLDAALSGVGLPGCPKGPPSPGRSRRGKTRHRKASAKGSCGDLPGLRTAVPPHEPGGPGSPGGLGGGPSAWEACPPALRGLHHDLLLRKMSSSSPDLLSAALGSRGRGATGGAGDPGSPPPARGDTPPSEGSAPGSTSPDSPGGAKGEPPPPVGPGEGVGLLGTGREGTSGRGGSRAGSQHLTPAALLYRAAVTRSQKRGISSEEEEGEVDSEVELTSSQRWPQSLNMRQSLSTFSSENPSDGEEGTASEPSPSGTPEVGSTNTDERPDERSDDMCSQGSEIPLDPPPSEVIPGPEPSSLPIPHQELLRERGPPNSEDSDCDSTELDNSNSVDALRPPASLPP
# Test: DLK TR-FRET Inhibition Assay: DLK kinase reactions (20 μL) containing 5 nM N-terminally GST-tagged DLK (catalytic domain amino acid 1-520) (Carna Bioscience), 40 nM N-terminally HIS tagged MKK4 K131M substrate, and 30 μM ATP in kinase reaction buffer (50 mM HEPES, pH 7.5, 0.01% Triton X-100, 0.01% Bovine γ-Globulins, 2 mM DTT, 10 mM MgCl2 and 1 mM EGTA), and testing compound 1:3 serial diluted starting at 20 uM were incubated at ambient temperature for 60 minutes in 384 well OptiPlate (Perkin Elmer). To quench kinase reactions and detect phosphorylated MKK4, 15 μL of TR-FRET antibody mixture containing 2 nM anti-phosphorylated MKK4 labeled with Europium cryptate (Cisbio) and 23 nM anti-HIS labeled with D2 (Cisbio) in detection buffer (25 mM Tris pH 7.5, 100 mM NaCl, 100 mM EDTA, 0.01% Tween-20, and 200 mM KF) was added to the reaction mixture. The detection mixture was incubated for 3 hours at ambient temperature and the TR-FRET was detected with an EnVision multilabel plate reader (Perkin-Elmer) using the LANCE/DELFIA Dual Enh label from Perkin-Elmer (excitation filter: UV2 (TRF) 320 and emission filters: APC 665 and Europium 615).
row,Ki,SMILES
1,46.3 nM,Cc1c[nH]c2ncc(-c3nc(N4CC5COCC5C4)c4nc5n(c4n3)CCOC5(C)C)cc12 (centres undefined)
2,995 nM,CC1(C)OCCn2c1nc1c(N3CC4COCC4C3)nc(-c3cnc(N)nc3)nc12 (centres undefined)
3,223 nM,COC1C2CCC1N(c1nc(-c3cnc(N)nc3)nc3c1nc1n3CCOC1(C)C)C2 (centres undefined)
4,1400 nM,CC(C)n1nccc1-c1nc(-c2cnc(N)nc2)nc2c1nc1n2CCOC1(C)C
